Laboratory results as given in patent publication EP0233441A1, “New enzyme inhibitor” (Astra Läkemedel Aktiebolag, priority 1985, dated 1987).

Assays:
[1] = target: T1, CMP-KDO synthetase (CKS) (Escherichia coli, UniProt P04951); assay: CKS Assay (enzyme inhibition); type: biochemical; conditions: percent of a control without inhibitor, read-out: Percentage of inhibition of CKS
T1 construct: made in house
Experimental: (§1) Potential inhibitors were tested for inhibitory action against two key enzymes involved in the biosynthesis of bacterial LPS.
I. CMP-KDO synthetase (CKS) which catalyses the reaction [drawing 20]
The CKS enzyme was prepared essentially as described by Osborne [J-.Biol.Chem. […]] and the enzyme assayed by the method of Ghalambor and Heath (J.Biol.Chem. 241 (1966) 3216-3221).
(§2) Inhibition of CKS and KLT enzymes by compound I is given in Table I. The inhibitory action is expressed in percent of a control without inhibitor run simultaneously.

[2] = target: CMP-KDO lipid A transferase (KLT) (Salmonella typhimurium, UniProt Q8ZL49); assay: KLT Assay (incorporation of [14-C]-labelled CMP-KDO into acid-insoluble product; CMP-KDO generated in situ by added CKS); type: biochemical; conditions: percent of a control without inhibitor, read-out: Percentage of inhibition of KLT
CMP-KDO lipid A transferase (KLT), sequence (Q8ZL49 entry or part of it): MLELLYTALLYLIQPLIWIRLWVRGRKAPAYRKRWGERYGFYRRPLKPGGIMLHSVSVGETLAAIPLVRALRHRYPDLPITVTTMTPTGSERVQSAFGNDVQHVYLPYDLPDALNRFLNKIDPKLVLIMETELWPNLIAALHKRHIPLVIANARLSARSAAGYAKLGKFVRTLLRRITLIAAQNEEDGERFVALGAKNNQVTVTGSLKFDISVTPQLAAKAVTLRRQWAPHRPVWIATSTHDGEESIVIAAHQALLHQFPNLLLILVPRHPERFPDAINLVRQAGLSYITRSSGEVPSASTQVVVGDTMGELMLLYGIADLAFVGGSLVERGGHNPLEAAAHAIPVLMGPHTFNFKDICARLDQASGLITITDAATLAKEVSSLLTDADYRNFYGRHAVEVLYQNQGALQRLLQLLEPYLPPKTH
Experimental: as §1
CMP-KDO lipid A transferase (KLT) which transfers CMP-KDO to an intermediate in the biosynthesis of LPS known as lipid A precursor [drawing 21]
The KLT enzyme was purified essentially by the method of Osborne (J.Biol.Chem. 252 (1977) 4895-4903). KLT activity was determined by monitoring the incorporation of [14-C]-labelled CMP-KDO into acid- insoluble product. The radio labelled CMP-KDO was generated in situ from CTP and [14-C]-KDO by the action of added CKS enzyme. The incubation mixture contained CKS enzyme, KLT enzyme, 110 mM Tris buffer pH 8.0, 10.6 mM NaCl, 0.5 mM CTP, 0.4%, Alfonic 1012-6 (Trade name), 0.16 mM [14-c] KDO and lipid A precursor. The final reaction volume was 150 µl. The mixture was incubated at 25°C for 15 min., when 50 µl was transferred to a filter paper circle (Munktell No. 5,24 mm.) and then washed copiously with 10% TCA. The radioactivity adsorbed on the paper circle, which represents radiolabelled KDO bound to precursor was determined using liquid scintillation counting.
as §2

T1 sequence (P04951 whole entry): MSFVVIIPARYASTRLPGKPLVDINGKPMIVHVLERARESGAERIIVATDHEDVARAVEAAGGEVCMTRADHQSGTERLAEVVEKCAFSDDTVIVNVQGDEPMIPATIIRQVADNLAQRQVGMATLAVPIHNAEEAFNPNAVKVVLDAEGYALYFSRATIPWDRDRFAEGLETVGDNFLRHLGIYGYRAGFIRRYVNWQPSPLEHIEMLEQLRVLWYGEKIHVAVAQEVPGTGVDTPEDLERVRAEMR

Q: `O=C(O)[C@@H]1C[C@@H](O)[C@@H](O)[C@@H]([C@H](O)CO)O1` [compound I, ammonium 2,6-anhydro-3-deoxy-D- -glycero-D -talo-octonate] was tested. Which inhibition at 2.5 µM ([1]; 0.0025 mM compound) did it give?
A: 8%

Q: What about the inhibition at 10 µM ([1]; 0.01 mM compound) of the same compound?
A: 36%

Q: What about the inhibition at 40 µM ([1]; 0.04 mM compound) of the same compound?
A: 68%

Q: What about the inhibition at 160 µM ([1]; 0.16 mM compound) of the same compound?
A: 90%

Q: And the inhibition at 640 µM ([1]; 0.64 mM compound)?
A: 98%

Q: What about the inhibition at 2540 µM ([1]; 2.54 mM compound) of the same compound?
A: 99%

Q: What about the inhibition at 10160 µM ([1]; 10.16 mM compound) of the same compound?
A: 98%

Q: And the inhibition at 0.625 µM ([2]; 0.000625 mM compound)?
A: 5%

Q: And the inhibition at 2.5 µM ([2]; 0.0025 mM compound)?
A: 24%

Q: And the inhibition at 10 µM ([2]; 0.01 mM compound)?
A: 57%

Q: And the inhibition at 40 µM ([2]; 0.04 mM compound)?
A: 81%

Q: What about the inhibition at 160 µM ([2]; 0.16 mM compound) of the same compound?
A: 89%

Q: And the inhibition at 640 µM ([2]; 0.64 mM compound)?
A: 98%
